The source of these data is patent publication US8686146B2, “Azaindenoisoquinoline topoisomerase I inhibitors” (Purdue Research Foundation, priority 2012, dated 2014).

One data set deals with SF-539. The data set can be described thus: NCI screen antiproliferative activity, CNS SF-539. As for the experimental part:
(§1) Cells of approximately 60 different human cancer cell lines were incubated for 48 h with five 10-fold dilutions of the tested compounds starting from 100 μM and then treated with sulforhodamine B dye. The ratios of recorded optical densities relative to that of the control were plotted as a function of the common logarithm of the tested compound concentrations. […] The GI50 and the mean graph midpoint (MGM) values of the prepared indenoisoquinolines in selected cell lines are presented in Table I.
(§2) The antiproliferative activity of each compound was determined in the National Cancer Institute (NCI) screen as described above. Cells of approximately 60 different human cancer cell lines were incubated for 48 h with five 10-fold dilutions of the test compounds starting from 100 μM, and then treated with sulforhodamine B dye. The ratios of recorded optical densities relative to those of the control were plotted as a function of the common logarithm of the tested compound concentrations. […] The GI50 and the mean graph midpoint (MGM) values of the prepared (aza)indeno-isoquinolines in selected cell lines are presented in Table 2.

The test system of a further data set is OVCAR-3. Put plainly: NCI screen antiproliferative activity, ovarian OVCAR-3. As for the experimental part: as §1, §2
The subject of the next data set is MCF7. The data set can be described thus: NCI screen antiproliferative activity, breast MCF7. On the procedure:
as §1, §2

A further data set concerns HOP-62. The data set can be described thus: NCI screen antiproliferative activity, lung HOP-62. On the procedure:
as §1, §2

Another data set relates to UACC-62. The data set can be described thus: NCI screen antiproliferative activity, melanoma UACC-62. As for the experimental part: as §1, §2
Data set [1] relates to approximately 60 different human cancer cell lines. The data set can be described thus: NCI screen, mean graph midpoint over all cell lines. The data set is classed as cell-based. Conditions: all human cancer cell lines successfully tested; 48 h; Table 2. As for the experimental part: as §1, §2
A further data set concerns DU-145. Put plainly: NCI screen antiproliferative activity, prostate DU-145. On the procedure:
as §1, §2

A further data set concerns the target T1, human recombinant Top1 (Homo sapiens, UniProt P11387).
T1 construct: made in house
T1 sequence (P11387 1-765): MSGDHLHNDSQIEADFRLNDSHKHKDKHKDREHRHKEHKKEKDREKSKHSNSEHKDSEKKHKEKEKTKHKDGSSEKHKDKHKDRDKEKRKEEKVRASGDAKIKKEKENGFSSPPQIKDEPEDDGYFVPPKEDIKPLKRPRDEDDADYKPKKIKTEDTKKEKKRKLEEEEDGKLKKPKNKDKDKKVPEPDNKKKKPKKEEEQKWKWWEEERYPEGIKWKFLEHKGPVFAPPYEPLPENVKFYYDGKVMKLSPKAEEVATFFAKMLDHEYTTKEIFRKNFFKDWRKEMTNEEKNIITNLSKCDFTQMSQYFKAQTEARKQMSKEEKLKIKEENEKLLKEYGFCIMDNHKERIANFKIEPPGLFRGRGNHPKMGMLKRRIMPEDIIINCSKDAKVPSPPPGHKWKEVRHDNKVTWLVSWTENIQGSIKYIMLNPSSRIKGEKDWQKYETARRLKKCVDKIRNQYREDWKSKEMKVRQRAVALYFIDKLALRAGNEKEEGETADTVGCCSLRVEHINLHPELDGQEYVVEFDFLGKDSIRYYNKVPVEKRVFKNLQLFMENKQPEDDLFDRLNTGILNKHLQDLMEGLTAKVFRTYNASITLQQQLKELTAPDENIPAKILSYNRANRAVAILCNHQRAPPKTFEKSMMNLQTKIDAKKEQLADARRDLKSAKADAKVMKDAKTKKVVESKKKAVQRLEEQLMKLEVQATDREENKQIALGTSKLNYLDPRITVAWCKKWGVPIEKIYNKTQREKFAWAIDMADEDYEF
Put plainly: Top1-mediated DNA cleavage assay. The data set is classed as biochemical. Conditions: semiquantitative, relative to compounds 1 and 2; Table 2. As for the experimental part:
Unincorporated [^32P]dGTP was removed using mini Quick […] columns (Roche, Indianapolis, Ind.), and the eluate containing the […] DNA substrate was collected. […] Aliquots of each reaction mixture were subjected to 20% denaturing PAGE. […] The DNA fragments were separated on a denaturing gel. […] All of the target compounds were tested for induction of DNA damage in Top1-mediated DNA cleavage assays, as described above.

In a further data set the test system is SN12C. The data set can be described thus: NCI screen antiproliferative activity, renal SN12C. On the procedure:
as §1, §2

The subject of another data set is HCT-116. The data set can be described thus: NCI screen antiproliferative activity, colon HCT-116. On the procedure:
as §1, §2

On to `COc1cnc2c(c1)C(=O)c1c-2n(CCCN2CCOCC2)c(=O)c2cc(OC)c(OC)cc12.Cl` [Compound 56, 7-Aza-5,6-dihydro-6-[3-(4-morpholino)propyl]-2,3,9-trimethoxy-5,11-dioxo-11H-indeno[1,2-c]isoquinoline Hydrochloride], for which the GI50 was determined as 270 nM in the data set on SF-539; 310 nM with OVCAR-3; 100 nM in the data set with MCF7; 240 nM in the data set on HOP-62; 220 nM in the data set on UACC-62; 340 nM in the data set with DU-145. Also, the results for the GI50 in the data set on SN12C and in the data set with HCT-116 were 340 nM and 330 nM, respectively. Further, in data set [1], the “MGM (mean graph midpoint for growth inhibition)” value amounted to 0.48 µM. Also, the “Top1 Cleavage” value at human recombinant Top1 is “++”.

Regarding `COc1cnc2c(c1)C(=O)c1c-2n(CCCN(C)C)c(=O)c2ccccc12` [Compound 63, 7-Aza-5,6-dihydro-6-(3-dimethylaminopropyl)-9-methoxy-5,11-dioxo-11H-indeno[1,2-c]isoquinoline], the GI50 stood at 570 nM in the data set on SF-539; 940 nM in the data set with OVCAR-3; 210 nM with MCF7; 300 nM with HOP-62; 540 nM in the data set with UACC-62; 300 nM with DU-145. For the same compound, the GI50 with SN12C worked out at 260 nM; with HCT-116 it was 340 nM. Besides, the “MGM (mean graph midpoint for growth inhibition)” value in data set [1] was 0.40 µM. In addition, at human recombinant Top1, the “Top1 Cleavage” value was “+++”.

On to `COc1cnc2c(c1)C(=O)c1c-2n(CCCN2CCOCC2)c(=O)c2ccccc12` [Compound 64, 7-Aza-5,6-dihydro-6-(3-(4-morpholino)propyl)-9-methoxy-5,11-dioxo-11H-indeno[1,2-c]isoquinoline], for which the GI50 with SF-539 turned out to be 3500 nM; in the data set on OVCAR-3, 6300 nM; in the data set on MCF7, 600 nM; with HOP-62, 4100 nM; with UACC-62, 1700 nM; in the data set on DU-145, 3600 nM. Besides, the GI50 with SN12C amounted to 2600 nM; in the data set on HCT-116, 2500 nM. Further, the “MGM (mean graph midpoint for growth inhibition)” value in [1] stood at 3.0 µM. For the same compound, the “Top1 Cleavage” value on human recombinant Top1 is listed as “++”.

Consider `COc1cnc2c(c1)C(=O)c1c-2n(CCCN(C)C)c(=O)c2cc([N+](=O)[O-])ccc12` [Compound 65, 7-Aza-5,6-dihydro-6-(3-dimethylaminopropyl)-9-methoxy-3-nitro-5,11-dioxo-11H-indeno[1,2-c]isoquinoline], for which the GI50 in the data set on SF-539 was determined as 78 nM; with OVCAR-3, 140 nM; with MCF7 it was 24 nM; in the data set with HOP-62, 54 nM; in the data set on UACC-62, 52 nM; in the data set with DU-145, 51 nM. The GI50 with SN12C was found to be 57 nM; in the data set with HCT-116 it was 74 nM. Besides, the “MGM (mean graph midpoint for growth inhibition)” value in data set [1] was found to be 0.11 µM. Also, the “Top1 Cleavage” value on human recombinant Top1 is given as “+++”.

As to `COc1cnc2c(c1)C(=O)c1c-2n(CCCN2CCOCC2)c(=O)c2cc([N+](=O)[O-])ccc12` [Compound 66, 7-Aza-5,6-dihydro-6-(3-(4-morpholino)propyl)-9-methoxy-3-nitro-5,11-dioxo-11H-indeno[1,2-c]isoquinoline], the GI50 in the data set with SF-539 was 35 nM; with OVCAR-3, 110 nM; with MCF7 it was 20 nM; in the data set on HOP-62 it was 51 nM; in the data set on UACC-62, 40 nM; with DU-145 it was 40 nM. The GI50 in the data set with SN12C is 43 nM; in the data set with HCT-116 it was 50 nM. For the same compound, in [1], the “MGM (mean graph midpoint for growth inhibition)” value came to 0.085 µM. In addition, the “Top1 Cleavage” value at human recombinant Top1 is “++++ (++++ similar activity as 1 μM 1.)”.

Consider `COc1cc2c3c(n(CCCN4CCOCC4)c(=O)c2cc1OC)-c1cnccc1C3=O.O=C(O)C(F)(F)F` [Compound 118, 8-Aza-5,6-dihydro-6-(3-(4-morpholino)propyl)-2,3-dimethoxy-5,11-dioxo-11H-indeno[1,2-c]isoquinoline Trifluoroacetate], for which the GI50 with SF-539 worked out at 40000 nM; in the data set on OVCAR-3, 24000 nM; in the data set on MCF7 it was 4100 nM; with HOP-62, 6500 nM; in the data set on UACC-62, 48000 nM; in the data set on DU-145 it was 24000 nM. In addition, the GI50 in the data set on SN12C came out at 16000 nM; in the data set on HCT-116 it was 2500 nM. For the same compound, the “MGM (mean graph midpoint for growth inhibition)” value in [1] was 16 µM. Moreover, the “Top1 Cleavage” value at human recombinant Top1 is “++”.

For orientation: GI50 means the concentration giving 50% growth inhibition.
